# PubChem BioAssay (NCI)
#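 Cultured in 96-well plates, cells were exposed to test compound for 48 hours across five concentrations. At the GI50, growth is halved. TGI: concentration producing complete growth inhibition.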
# System: LXFL 529 NSCLC
# Experiment: DTP human tumour cell line panel, 48 h
row,Structure (SMILES),TGI
1,COc1ccc(-c2cn3ccsc3n2)cc1,> 100 µM
2,CCOC1=NC(=O)CC(c2ccccc2)S1 (centres undefined),> 100 µM
3,CCOC(=O)C(Cc1ccc2ccccc2c1)(Cc1ccc2ccccc2c1)C(C)=O,> 10 µM

# System: CCRF-CEM leukemia
# Experiment: DTP human tumour cell line panel, 48 h
Structure (SMILES),GI50,TGI
N.N.N.N.N.O=C([O-])c1nn[n-]n1.[Cl-].[Co+3],> 100 µM,> 100 µM
COc1c2c(cc3nc4ccccc4nc13)CCC(C(C)(C)O)C2 (centres undefined),,> 100 µM
CN(C)CC/C(=N\Nc1c(Cl)cccc1Cl)c1ccccc1,,79.3 µM
CC(C)=CCC/C(=C/CC/C(C)=C/CCc1ccoc1)C(=O)O,,> 100 µM
COc1ccc(-c2cn3ccsc3n2)cc1,,> 100 µM
CCOC1=NC(=O)CC(c2ccccc2)S1 (centres undefined),,> 100 µM
CCOC(=O)C(Cc1ccc2ccccc2c1)(Cc1ccc2ccccc2c1)C(C)=O,,> 10 µM

# System: OVCAR-3 ovarian
# Experiment: DTP human tumour cell line panel, 48 h
Structure (SMILES),GI50,TGI
N.N.N.N.N.O=C([O-])c1nn[n-]n1.[Cl-].[Co+3],> 100 µM,> 100 µM
COc1c2c(cc3nc4ccccc4nc13)CCC(C(C)(C)O)C2 (centres undefined),,> 100 µM
CN(C)CC/C(=N\Nc1c(Cl)cccc1Cl)c1ccccc1,,65.9 µM
CC(C)=CCC/C(=C/CC/C(C)=C/CCc1ccoc1)C(=O)O,,> 100 µM
COc1ccc(-c2cn3ccsc3n2)cc1,,> 100 µM
CCOC1=NC(=O)CC(c2ccccc2)S1 (centres undefined),,> 100 µM

# System: HOP-18 NSCLC
# Experiment: DTP human tumour cell line panel, 48 h
Structure (SMILES),GI50,TGI
N.N.N.N.N.O=C([O-])c1nn[n-]n1.[Cl-].[Co+3],> 100 µM,> 100 µM
COc1c2c(cc3nc4ccccc4nc13)CCC(C(C)(C)O)C2 (centres undefined),,> 100 µM
CN(C)CC/C(=N\Nc1c(Cl)cccc1Cl)c1ccccc1,,51.1 µM
COc1ccc(-c2cn3ccsc3n2)cc1,,> 100 µM

# System: RXF 393 renal
# Experiment: DTP human tumour cell line panel, 48 h
Structure (SMILES),GI50,TGI
N.N.N.N.N.O=C([O-])c1nn[n-]n1.[Cl-].[Co+3],> 100 µM,> 100 µM
COc1c2c(cc3nc4ccccc4nc13)CCC(C(C)(C)O)C2 (centres undefined),,> 100 µM
CN(C)CC/C(=N\Nc1c(Cl)cccc1Cl)c1ccccc1,,28.5 µM
CC(C)=CCC/C(=C/CC/C(C)=C/CCc1ccoc1)C(=O)O,,> 100 µM
CCOC1=NC(=O)CC(c2ccccc2)S1 (centres undefined),,> 100 µM

# System: A549 NSCLC
# Experiment: DTP human tumour cell line panel, 48 h
Structure (SMILES),GI50,TGI
N.N.N.N.N.O=C([O-])c1nn[n-]n1.[Cl-].[Co+3],> 100 µM,> 100 µM
COc1c2c(cc3nc4ccccc4nc13)CCC(C(C)(C)O)C2 (centres undefined),,> 100 µM
CN(C)CC/C(=N\Nc1c(Cl)cccc1Cl)c1ccccc1,,> 100 µM
CC(C)=CCC/C(=C/CC/C(C)=C/CCc1ccoc1)C(=O)O,,> 100 µM
COc1ccc(-c2cn3ccsc3n2)cc1,,> 100 µM
CCOC1=NC(=O)CC(c2ccccc2)S1 (centres undefined),,> 100 µM
CCOC(=O)C(Cc1ccc2ccccc2c1)(Cc1ccc2ccccc2c1)C(C)=O,,> 10 µM

# System: SK-MEL-28 melanoma
# Experiment: DTP human tumour cell line panel, 48 h
Structure (SMILES),GI50,TGI
N.N.N.N.N.O=C([O-])c1nn[n-]n1.[Cl-].[Co+3],> 100 µM,> 100 µM
COc1c2c(cc3nc4ccccc4nc13)CCC(C(C)(C)O)C2 (centres undefined),,> 100 µM
CN(C)CC/C(=N\Nc1c(Cl)cccc1Cl)c1ccccc1,,39.7 µM
CC(C)=CCC/C(=C/CC/C(C)=C/CCc1ccoc1)C(=O)O,,> 100 µM
COc1ccc(-c2cn3ccsc3n2)cc1,,> 100 µM

# System: COLO 205 colon
# Experiment: DTP human tumour cell line panel, 48 h
Structure (SMILES),GI50,TGI
N.N.N.N.N.O=C([O-])c1nn[n-]n1.[Cl-].[Co+3],> 100 µM,> 100 µM
COc1c2c(cc3nc4ccccc4nc13)CCC(C(C)(C)O)C2 (centres undefined),,> 100 µM
CN(C)CC/C(=N\Nc1c(Cl)cccc1Cl)c1ccccc1,,29.4 µM
CC(C)=CCC/C(=C/CC/C(C)=C/CCc1ccoc1)C(=O)O,,> 100 µM
COc1ccc(-c2cn3ccsc3n2)cc1,,> 100 µM
CCOC1=NC(=O)CC(c2ccccc2)S1 (centres undefined),,> 100 µM
CCOC(=O)C(Cc1ccc2ccccc2c1)(Cc1ccc2ccccc2c1)C(C)=O,,> 10 µM

# System: OVCAR-5 ovarian
# Experiment: DTP human tumour cell line panel, 48 h
Structure (SMILES),GI50,TGI
N.N.N.N.N.O=C([O-])c1nn[n-]n1.[Cl-].[Co+3],> 100 µM,> 100 µM
COc1c2c(cc3nc4ccccc4nc13)CCC(C(C)(C)O)C2 (centres undefined),,> 100 µM
CN(C)CC/C(=N\Nc1c(Cl)cccc1Cl)c1ccccc1,,35.7 µM
CC(C)=CCC/C(=C/CC/C(C)=C/CCc1ccoc1)C(=O)O,,> 100 µM
COc1ccc(-c2cn3ccsc3n2)cc1,,> 100 µM
CCOC1=NC(=O)CC(c2ccccc2)S1 (centres undefined),,> 100 µM

# System: 786-0 renal
# Experiment: DTP human tumour cell line panel, 48 h
Structure (SMILES),GI50,TGI
N.N.N.N.N.O=C([O-])c1nn[n-]n1.[Cl-].[Co+3],> 100 µM,> 100 µM
COc1c2c(cc3nc4ccccc4nc13)CCC(C(C)(C)O)C2 (centres undefined),,> 100 µM
CN(C)CC/C(=N\Nc1c(Cl)cccc1Cl)c1ccccc1,,31.3 µM
CC(C)=CCC/C(=C/CC/C(C)=C/CCc1ccoc1)C(=O)O,,> 100 µM
COc1ccc(-c2cn3ccsc3n2)cc1,,> 100 µM
CCOC1=NC(=O)CC(c2ccccc2)S1 (centres undefined),,> 100 µM
CCOC(=O)C(Cc1ccc2ccccc2c1)(Cc1ccc2ccccc2c1)C(C)=O,,> 10 µM

# System: M19-MEL melanoma
# Experiment: DTP human tumour cell line panel, 48 h
row,Structure (SMILES),TGI
1,COc1c2c(cc3nc4ccccc4nc13)CCC(C(C)(C)O)C2 (centres undefined),> 100 µM
2,CN(C)CC/C(=N\Nc1c(Cl)cccc1Cl)c1ccccc1,33.6 µM
3,CC(C)=CCC/C(=C/CC/C(C)=C/CCc1ccoc1)C(=O)O,> 100 µM
4,COc1ccc(-c2cn3ccsc3n2)cc1,> 100 µM
5,CCOC1=NC(=O)CC(c2ccccc2)S1 (centres undefined),> 100 µM
6,CCOC(=O)C(Cc1ccc2ccccc2c1)(Cc1ccc2ccccc2c1)C(C)=O,> 10 µM

# System: NCI-H226 lung
# Experiment: DTP human tumour cell line panel, 48 h
Structure (SMILES),GI50,TGI
N.N.N.N.N.O=C([O-])c1nn[n-]n1.[Cl-].[Co+3],> 100 µM,> 100 µM
COc1c2c(cc3nc4ccccc4nc13)CCC(C(C)(C)O)C2 (centres undefined),,> 100 µM
CC(C)=CCC/C(=C/CC/C(C)=C/CCc1ccoc1)C(=O)O,,> 100 µM
COc1ccc(-c2cn3ccsc3n2)cc1,,> 100 µM
CCOC1=NC(=O)CC(c2ccccc2)S1 (centres undefined),,> 100 µM

# System: LOX IMVI melanoma
# Experiment: DTP human tumour cell line panel, 48 h
Structure (SMILES),GI50,TGI
N.N.N.N.N.O=C([O-])c1nn[n-]n1.[Cl-].[Co+3],> 100 µM,> 100 µM
COc1c2c(cc3nc4ccccc4nc13)CCC(C(C)(C)O)C2 (centres undefined),,> 100 µM
CN(C)CC/C(=N\Nc1c(Cl)cccc1Cl)c1ccccc1,,31 µM
CC(C)=CCC/C(=C/CC/C(C)=C/CCc1ccoc1)C(=O)O,,> 100 µM
COc1ccc(-c2cn3ccsc3n2)cc1,,> 100 µM
CCOC1=NC(=O)CC(c2ccccc2)S1 (centres undefined),,> 100 µM
CCOC(=O)C(Cc1ccc2ccccc2c1)(Cc1ccc2ccccc2c1)C(C)=O,,> 10 µM

# System: SW-620 colon
# Experiment: DTP human tumour cell line panel, 48 h
Structure (SMILES),GI50,TGI
N.N.N.N.N.O=C([O-])c1nn[n-]n1.[Cl-].[Co+3],> 100 µM,> 100 µM
COc1c2c(cc3nc4ccccc4nc13)CCC(C(C)(C)O)C2 (centres undefined),,> 100 µM
CN(C)CC/C(=N\Nc1c(Cl)cccc1Cl)c1ccccc1,,36.8 µM
CC(C)=CCC/C(=C/CC/C(C)=C/CCc1ccoc1)C(=O)O,,> 100 µM
COc1ccc(-c2cn3ccsc3n2)cc1,,34.9 µM
CCOC1=NC(=O)CC(c2ccccc2)S1 (centres undefined),,> 100 µM
CCOC(=O)C(Cc1ccc2ccccc2c1)(Cc1ccc2ccccc2c1)C(C)=O,,> 10 µM

# System: SNB-19 CNS
# Experiment: DTP human tumour cell line panel, 48 h
Structure (SMILES),GI50,TGI
N.N.N.N.N.O=C([O-])c1nn[n-]n1.[Cl-].[Co+3],> 100 µM,> 100 µM
COc1c2c(cc3nc4ccccc4nc13)CCC(C(C)(C)O)C2 (centres undefined),,> 100 µM
CN(C)CC/C(=N\Nc1c(Cl)cccc1Cl)c1ccccc1,,> 100 µM
CC(C)=CCC/C(=C/CC/C(C)=C/CCc1ccoc1)C(=O)O,,> 100 µM
